Source: US20240409536A1, “COMPOUNDS AND METHODS FOR MODULATING SPLICING” (REMIX THERAPEUTICS INC., priority 2021, published 2024)
pIC50: −log10 of the molar value. Counter-ions that a name gives are not always drawn.

Experiments:
Target C mRNA = experiment: Gene panel canonical junction qPCR assay, Target C CJ mRNA decrease; format: cell-based; details: Homo sapiens, canonical junction qPCR, read-out: Target C IC50 (decrease in CJ mRNA levels)
Procedure, shortened: (§1)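 A673 or K562 cells treated with compound; canonical exon-exon junction mRNA quantified by cDNA synthesis and RT-qPCR with junction-spanning primer/probe, normalized to GAPDH, GUSB or PPIA and DMSO (2^(−ΔΔCt)). Percent response from set ΔCt assay windows fitted to 4-parameter logistic; IC50 for CJ decrease.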

Target C = experiment: HiBiT protein abundance assay, Target C (K562 HiBiT knock-in cells); format: cell-based, human; details: 24 hours
Procedure, shortened: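 K562 knock-in cells (10000/well, IMDM+1% FBS) treated 24 h at 37 °C with 10-point 3-fold dilutions, top final 10 μM, DMSO ≤0.25%. HiBiT lytic luminescence read; response normalized to unmodified K562 and DMSO-treated controls. IC50 interpolated at 50% abundance by four-parameter logistic fit.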

K562 cells = experiment: Cell Titer Glo 2.0 cell viability assay in K562 cells; details: 72 hours
HTT mRNA = experiment: Gene panel canonical junction qPCR assay, HTT CJ mRNA decrease; format: cell-based, human; details: Homo sapiens, canonical junction qPCR, read-out: HTT IC50 (decrease in CJ mRNA levels)
Procedure, shortened: as §1

SMILES	pIC50 (Target C mRNA)	pIC50 (Target C)	pIC50 (HTT mRNA)	Viability (K562 cells)
Cc1cn2cc(NC(=O)c3ccc(N4CCNC5(CC5)C4)c4nccnc34)cc(F)c2n1 [Compound 218, 8-{4,7-diazaspiro[2.5]octan-7-yl}-N-{8-fluoro-2-methylimidazo[1,2-a]pyridin-6-yl}quinoxaline-5-carboxamide]	< 5.00	5.00 to 6.00	< 5.00	B (B represents 100-1000 nM)
COc1cnc2c(C(=O)Nc3cc(F)c4nc(C)cn4c3)ccc(N3C[C@@H](C)N[C@@H](C)C3)c2n1 [Compound 223]	6.00 to 7.00	6.00 to 7.00	6.00 to 7.00	B (B represents 100-1000 nM)
COc1ncc2c(N3C[C@@H](C)N[C@@H](C)C3)ccc(C(=O)Nc3cn4cc(C)nc4c(OC)n3)c2n1 [Compound 378]	6.00 to 7.00	6.00 to 7.00	6.00 to 7.00	A (A represents <100 nM)
Cc1cn2cc(NC(=O)c3ccc(N4CCN(CCF)C5(CC5)C4)c4nccnc34)cc(F)c2n1 [Compound 370]	< 5.00	< 5.00	< 5.00	D (D represents greater than 10 μM in K562 cells)
Cc1cn2cc(NC(=O)c3ccc(N4CCN[C@@H](C)C4)c4nccnc34)cc(F)c2n1 [Compound 187, N-{8-fluoro-2-methylimidazo[1,2-a]pyridin-6-yl}-8-(3-methylpiperazin-1-yl) quinoxaline-5-carboxamide]	< 5.00	5.00 to 6.00	5.00 to 6.00	B (B represents 100-1000 nM)
CNC1CCN(c2ccc(C(=O)Nc3cc(F)c4nc(C)cn4c3)c3nccnc23)C1 (stereo not shown) [Compound 190, N-{8-fluoro-2-methylimidazo[1,2-a]pyridin-6-yl}-8-[3-(methylamino)pyrrolidin-1-yl]quinoxaline-5-carboxamide]	5.00 to 6.00	5.00 to 6.00	5.00 to 6.00	A (A represents <100 nM)

Second part, led by results:

pIC50 (Target C mRNA)	pIC50 (Target C)	pIC50 (HTT mRNA)	SMILES	Viability (K562 cells)
< 5.00	< 5.00	5.00 to 6.00	Cc1cn2cc(NC(=O)c3ccc(C4CCN(C)CC4)c4ccnnc34)cc(F)c2n1 [Compound 140]	B (B represents 100-1000 nM)
< 5.00	< 5.00	< 5.00	Cc1cn2cc(NC(=O)c3ccc(N4CCNCC4)c4ccnnc34)cc(C(C)O)c2n1 (stereo not shown) [Compound 182, N-[8-(1-hydroxyethyl)-2-methylimidazo[1,2-a]pyridin-6-yl]-5-(piperazin-1-yl)cinnoline-8-carboxamide trifluoroacetate]	D (D represents greater than 10 μM in K562 cells)
< 5.00	5.00 to 6.00	5.00 to 6.00	CC[C@@H]1CN(c2ccc(C(=O)Nc3cc(F)c4nc(C)cn4c3)c3nnccc23)CCN1 [Compound 151]	B (B represents 100-1000 nM)
< 5.00	5.00 to 6.00	< 5.00	COc1cc(NC(=O)c2ccc(N3CCNCC3)c3ccnnc23)cn2cc(C)nc12 [Compound 176, N-{8-methoxy-2-methylimidazo[1,2-a]pyridin-6-yl}-5-(piperazin-1-yl)cinnoline-8-carboxamide trifluoroacetate]	B (B represents 100-1000 nM)
6.00 to 7.00	6.00 to 7.00	6.00 to 7.00	Cc1cn2cc(NC(=O)c3ccc(N4CCC(N(C)C)CC4)c4ccnnc34)cc(F)c2n1 [Compound 137]	A (A represents <100 nM)
5.00 to 6.00	5.00 to 6.00	5.00 to 6.00	Cc1cn2cc(NC(=O)c3ccc(N4CCC(N5CCCC5)C4)c4ccnnc34)cc(F)c2n1 (stereo not shown) [Compound 133]	C (C represents 1000-9999 nM)
5.00 to 6.00	5.00 to 6.00	6.00 to 7.00	Cc1cc2c(N3CCNCC3)ccc(C(=O)Nc3cc(F)c4nc(C)cn4c3)c2nn1 [Compound 159]	A (A represents <100 nM)
